Laboratory results published in US20040086949A1, “Method for preparing a ligand presenting assembly (LPA), an LPA and uses thereof” (Statens Serum Institut, priority 1998, published 2004).
Ends that are not written are not given here.

Key:
[1] = test system: IgM antibodies in sera from patients with neuroborreliosis; test: Indirect IgM-ELISA with LPA-I or biotinylated-pepC10 as coated antigen; type: binding, human; conditions: NB sera (n = 97), sera diluted 1/200, 98% specific cut-off
Method: The capability of LPA-I according to the present invention to react with sera from patients with neuroborreliosis was evaluated against that of an ELISA based on biotinylated-pepC10, wherein pepC10 is identical to the amino acid sequence of Seq. ID 1.
Preparing plates for the LPA-I-ELISA: Microtiter plates (Maxisorb; Nunc, Roskilde, Denmark) were coated overnight at 4° C. with 0.6 μg/ml of LPA-I diluted in 0.05 M bicarbonate pH 9.6, blocked with 3% (w/v) milk powder in phosphate-buffered saline (PBS) for 1 h, and reacted with sera diluted 1/200 in 1% (w/v) milk powder in PBS containing 0.05% Tween 20 (PBST) and 0.7 M NaCl for 2 h. The secondary antibody was a peroxidase conjugated rabbit anti-human IgM (Dako, Denmark, codes P-215) diluted 1/1000 in 1% (w/v) milk powder in PBST. After 1 h of incubation, bound secondary antibody was quantitated by colouring with o-phenylenediamine and H2O2 in citrate buffer (Sigma, St. Louis, Mo.) for 30 min. Optical density (OD) at 492 nm was determined in a plate reader (EAR 400 AC-SLT, Labinstruments, Austria). Plates were washed extensively with PBST-0.5M NaCl between each incubation step. The 98% specific diagnostic cut-off level was OD of 0.270 for IgM detection.
Preparing plates for the biotinylated-pepC10-ELISA: ELISAs with biotinylated-pepC10, were performed essentially as described above for LPA-I, except that microtiter plates were first coated with streptavidin (2.5 μg/ml) (Zymed, S. Avidinii) in citrate buffer (pH 5) overnight at 4° C., and then incubated with biotinylated pepC10 (0.1 μg/ml) in 1% (w/v) milk powder in PBST-0.37 M NaCl overnight at 4° C.
(i) Sera from 97 Danish patients with neuroborreliosis (NB). All patients had been hospitalised in 1994 ([…] between 4 and 80 years of age; median age, 49). The selection was based on a positive test for B. burgdorferi specific intrathecal antibody synthesis. The diagnosis was further corroborated by the presence of lymphocytic pleocytosis in CSF (median cell count, 124/μl) and one of the following manifestations: lymphocytic meningoradiculitis with typical painful radiculitis, mononeuritis multiplex (Bannwarth's syndrome), radiculomyelitis, monosymptomatic fascialis paresis (all children), subacute lymphocytic meningitis, and chronic progressive encephalomyelitis. Of the 100 patients, 48 recalled a previous EM-like skin lesion. Disease duration, defined as the time from onset of neurological symptoms until diagnostic blood and CSF samples were taken, ranged from 1 week to 26 weeks (median duration, 3 weeks).
Sera from 80 healthy controls were used for determination of the 98%-specific cut-off level in ELISAs.

[2] = test system: C-terminal B-cell epitope of OspC; test: Immunogenicity of LPA-VI in mice, serum Ig ELISA against recombinant OspC and LPA-I; type: in vivo; conditions: five female C57 black mice, 5 μg i.p. on days 0 and 14 with Al(OH)3 and Freund's incomplete adjuvant, sera diluted 200 fold
Method: The capability of an LPA according to the present invention to induce a humoral immune response was studied by immunising mice with LPA-VI. Five female C57 black mice (age 6 to 8 weeks) were immunised two times intraperitoneally with a 2-week interval and were bled on days 0, 14, and 28. Each immunisation dose contained. 5 μg of LPA-VI dissolved in 0.25 ml 0.9% NaCl and supplemented with 1 mg Al(OH)3 (Superfos Biosector, Denmark) and 0.25 ml Freund's incomplete adjuvant. The serum samples were diluted 200 fold and then tested by ELISA for Ig reactivity against OspC produced on recombinant form (WO 97/42221) and LPA-I (FIG. 8).
FIG. 8. Mean ELISA titer of sera from five mice immunised with LPA-VI on days 0 and 14. The microdilution plates were coated with LPA-I (diamond) or recombinant OspC (Squares), and the sera were analysed in a 200-fold dilution.

biotinylated-pepC10: biotinylated peptide; pepC10 is identical to the amino acid sequence of Seq. ID 1 (ProValValAlaGluSerProLysLysPro), bound to streptavidin-coated plates (PVVAESPKKP; also: biotinylated, place not given here) [reference compound]
% of IgM reactive sera (frequency of positive Lyme borreliosis sera) [1]: 43.3%
No. of IgM reactive sera [1]: 42

(HO-ProLysLysProSerGluAlaValValPro-COCH2)2N-Lys(AlaSerAlaAlaAlaGluIleGlyAlaPheAsnTrpGlnGlnGluThrMet-H)2 [LPA-VI]
induction of antibodies against the C-terminal B-cell epitope of OspC [2]: highly effective in inducing antibodies

FmocN(CH2CO-ProValValAlaGluSerProLysLysPro-OH)2 [LPA-I]
% of IgM reactive sera (frequency of positive Lyme borreliosis sera) [1]: 42.3%
No. of IgM reactive sera [1]: 41
